Test results from EP1608650B1, “PYRENE-LINKED PYRROLO(2,1-C)(1,4)BENZODIAZEPINE DERIVATIVES USEFUL AS ANTICANCER AGENTS” (Council of Scientific and Industrial Research, priority 2003, dated 2004).

Legend:
[1] = tested on: (Lung) NCI-H460; experiment: In vitro one dose primary anticancer assay (NCI); format: cell-based, human; conditions: one dose at 10^-4 molar concentration
[2] = tested on: (Breast) MCF7; experiment: In vitro one dose primary anticancer assay (NCI); format: cell-based, human; conditions: one dose at 10^-4 molar concentration
[3] = tested on: (CNS) SF-268; experiment: In vitro one dose primary anticancer assay (NCI); format: cell-based, human; conditions: one dose at 10^-4 molar concentration
[4] = tested on: prostate cancer (DU-145); conditions: read-out: potency (at the LC50 level)
Description: (§1) In vitro biological activity studies were carried out at National Cancer Institute (USA).
(§2) For each compound, dose response curves for each cell line were measured at a minimum of five concentrations at 10 fold dilutions. A protocol of 48 h continuous drug exposure was used and a sulforhodamine B (SRB) protein assay was used to estimate cell viability or growth. […]

[5] = tested on: colon cancer (HCC-2998); conditions: read-out: potency (at the LC50 level)
Description: as §1, §2

[6] = tested on: non-small cell lung cancer (NCI-H226); conditions: read-out: potency (at the LC50 level)
Description: as §1, §2

[7] = tested on: leukemia cancer (SR); conditions: read-out: potency (at the LC50 level)
Description: as §1, §2

[8] = tested on: melanoma cancer (M14); conditions: read-out: potency (at the LC50 level)
Description: as §1, §2

[9] = tested on: CNS cancer cell lines (SNB75); conditions: read-out: potency (at the LC50 level)
Description: as §1, §2

[10] = tested on: renal cancer (A498); conditions: read-out: potency (at the LC50 level)
Description: as §1, §2

[11] = tested on: human tumour cell lines; experiment: cells
Description: as §1, §2

[12] = tested on: Ovarian; conditions: average of six to nine different cancer cell lines, log value
Description: as §1, §2
(§3) Each cancer type represents the average of six to nine different cancer cell lines.

[13] = tested on: Renal; conditions: average of six to nine different cancer cell lines, log value
Description: as §1, §2, §3

[14] = tested on: Colon; conditions: average of six to nine different cancer cell lines, log value
Description: as §1, §2, §3

[15] = tested on: Breast; conditions: average of six to nine different cancer cell lines, log value
Description: as §1, §2, §3

[16] = tested on: Non-small-cell lung; conditions: average of six to nine different cancer cell lines, log value
Description: as §1, §2, §3

[17] = tested on: CNS; conditions: average of six to nine different cancer cell lines, log value
Description: as §1, §2, §3

[18] = tested on: Melanoma; conditions: average of six to nine different cancer cell lines, log value
Description: as §1, §2, §3

[19] = tested on: Leukemia; conditions: average of six to nine different cancer cell lines, log value
Description: as §1, §2, §3

[20] = tested on: Prostate; conditions: average of six to nine different cancer cell lines, log value
Description: as §1, §2, §3

Compound: 7-Methoxy-8-[N-(1"-pyrenyl)-butne-4'-carboxamide]-oxy-(11aS)-1,2,3,11a-tetra-hydro-5H-pyrrolo[2,1-c][1,4]benzodiazepin-5-one [Vg]
- Growth percentages (Lung) NCI-H460 [1]: 106
- Growth percentages (Breast) MCF7 [2]: 72
- Growth percentages (CNS) SF-268 [3]: 131

Compound: COc1cc2c(cc1OCCCC(=O)Nc1ccc3ccc4cccc5ccc1c3c45)N=C[C@@H]1CCCN1C2=O [Ve, 7-Methoxy-8-[N-(1"-pyrenyl)-propane-3'-carboxamide]-oxy-(11aS)-1,2,3,11atetra-hydro-5H-pyrrolo[2,1-c][1,4]benzodiazepin-5-one]
- CC50 [4]: 10000 nM
- CC50 [5]: 10 nM
- CC50 [6]: 10 nM
- CC50 [7]: 100 nM
- CC50 [8]: 100 nM
- CC50 [9]: 10000 nM
- CC50 [10]: 100 nM
- GI50 ([11]; Homo sapiens, 48 h, read-out: Log10 GI50 (converted)): 17.8 nM
- Log10 LC50 ([11]; mean graph midpoint (MG_MID), 48 h continuous drug exposure, 50% cell death): -4.74
- Log10 TGI ([11]; mean graph midpoint (MG_MID), 48 h continuous drug exposure, total cell growth inhibition): -6.89
- Growth percentages (Lung) NCI-H460 [1]: 11
- Growth percentages (Breast) MCF7 [2]: 31
- Log LC50 (concentration in mol/L causing 50% lethality) [12]: > -4.00 mol/L
- Log LC50 (concentration in mol/L causing 50% lethality) [13]: -5.05 mol/L
- Log LC50 (concentration in mol/L causing 50% lethality) [14]: -5.00 mol/L
- Log LC50 (concentration in mol/L causing 50% lethality) [15]: > -4.00 mol/L
- Log LC50 (concentration in mol/L causing 50% lethality) [16]: -4.67 mol/L
- Log LC50 (concentration in mol/L causing 50% lethality) [17]: -5.23 mol/L
- Log LC50 (concentration in mol/L causing 50% lethality) [18]: -5.62 mol/L
- Log LC50 (concentration in mol/L causing 50% lethality) [19]: -4.65 mol/L
- Log LC50 (concentration in mol/L causing 50% lethality) [20]: -5.30 mol/L
- Growth percentages (CNS) SF-268 [3]: 70
